Data reported in patent publication US5250546A, “Amino-alcohol derivatives and processes for their preparation” (Nippon Chemiphar Co., Ltd., priority 1984, dated 1993).

Assays:
[1] = Acute toxicity, up-and-down method; conditions: mouse, in vivo; iv (caudal vein), ddN male mice
Protocol: Using ddN male mice, the acute toxicity level of each test compound was determined in accordance with an up-and-down method. Some of the test compounds used were dissolved in physiological saline and administered through the caudal vein.

[2] = test system: anemic decerebrate rigidity (Wistar male rats); experiment: Effects on anemic decerebrate rigidity (EMG of M. triceps brachii); type: in vivo; conditions: Rattus norvegicus, iv, 10 min; 3 mg/kg through the femoral vein; 10 minutes after administration; read-out: Suppression rate (rigidity, EMG pulse area)
Protocol: An anemic decerebrate rigidity sample was prepared principally in accordance with the procedure of Fukuda et al. [Japan. […] Wistar male rats (body weight: 270 to 350 g) were held on their backs and incised at their cervices under etherization. After the trachea and common carotid arteries were exposed, the trachea was cannulated and the bilateral common carotid arteries and esophagus were then double-ligated and cut. Thereafter, its occipital bone was exposed through which a circular hole was bored to double-ligate the centrally extending basilar artery. As each rat started coming out of anesthetization, its front limbs became rigid. Measurement was conducted by recording electromyographic (EMG) response from the muscle of the forelimb (M. triceps brachii) of the rat in the rigid state. The EMG pulses were converted to accumulated values every 10 seconds and recorded as a histogram on a recorder.
The effect of each test compound on the rigidity was evaluated in terms of the suppression rate. This rate was calculated first by determining the area of a decreased EMG pulse part on the histogram upon passage of 10 minutes after administration of a physiological saline solution of each test compound (3 mg/kg) through the femoral vein and then in accordance with the following equation.
A: EMG pulse area when no test compound was administered (control).

[3] = test system: glutamic acid at neuromuscular junctions of crayfish (opener muscles of the first walking legs); experiment: Blocking effects against glutamic acid at neuromuscular junctions of crayfish (L-glutamic acid-induced depolarization); type: cell-based; conditions: 5 min; suppression rate of depolarization by L-glutamic acid (10^-4 M); 5-minute pretreatment with test compound 2×10^-4 M
Description: The opener muscles of the first walking legs of crayfish were used as experimental materials. The neuromuscular sample was held in a bath in which a physiological solution [composition (mM): NaCl (195), CaCl2 (18), KCl (5.4), tris-maleate buffer (pH 7.5; 10), glucose (11)] for use with the crayfish was perfused at room temperature and at a constant flow rate. A glass micro-electrode filled with a 3M-KCl solution was inserted in a central part of the muscle fiber to intracellularly record changes in the potential of the muscular cell membrane.
The blocking effect of each test compound against glutamic acid was evaluated in terms of the suppression rate to depolarization which was induced by bath-applying L-glutamic acid (10^-4 M) in a 5-minute pretreatment with a solution of the test compound (2×10^-4 M).

| SMILES | LD50 [1] [mg/kg] | inhibition in vivo at 3 mg/kg [2] [%] | inhibition at 200 µM [3] [%] |
| --- | --- | --- | --- |
| CCCCC[C@H](NCCCN1CCCCC1)[C@H](O)c1ccccc1.Cl.Cl (racemic) [Compound 5, (1RS,2SR)-1-phenyl-2-(3-piperidinopropylamino)heptan-1-ol dihydrochloride] | 22.1 | 18.5 | 100 |
| CCCC[C@H](NCCCN1CCCCC1)[C@H](O)c1ccccc1.Cl.Cl (racemic) [Compound 3, (1RS,2SR)-1-phenyl-2-(3-piperidinopropylamino)hexan-1-ol dihydrochloride] | 19.2 | 17.5 | 99 |
| CC(C)CC[C@H](NCCCN1CCCCC1)[C@H](O)c1ccccc1.Cl.Cl (racemic) [Compound 21, (1RS,2SR)-5-methyl-1-phenyl-2-(3-piperidinopropylamino)hexan-1-ol dihydrochloride] | 13.6 | 65.9 | 100 |
